Measurements: patent publication US6579874B2, “Substituted azoles” (Novartis AG, priority 1999, dated 2003)
Counter-ions that a name gives are not always drawn.

Experiments:
[1] = system: TNF-α release from hPBMCs; assay: Assay for Inhibition of TNF-α Release from hPBMCs (IFNg/LPS stimulated, ELISA); type: cell-based; conditions: Homo sapiens, 3 h, IFNg (100 U/ml) and LPS, three hours, TNF-α in supernatant by ELISA, read-out: IC50 for suppression of TNF release
Experimental: Assay for Inhibition of TNF-α Release from hPBMCs
Human peripheral blood mononuclear cells (hPBMCs) are prepared from the peripheral blood of healthy volunteers using ficoll-hypaque density separation according to the method of Hansell et al., J. Imm. Methods (1991) 145: 105. and used at a concentration of 10^5 cells/well in RPMI 1640 plus 10% FCS. Cells are incubated with serial dilutions of the test compounds for 30 minutes at 37° C. prior to the addition of IFNg (100 U/ml) and LPS ([…]) and subsequently further incubated for three hours. Incubation is […] by centrifugation at 1400 RPM for 10 min. TNF-α in the supernatant is measured using a commercial ELISA (Innotest hTNFa, available from Innogenetics N.V., Zwijnaarde, Belgium). Agents of the Invention are tested at concentrations of from […]. Exemplified Agents of the Invention typical suppress TNF release in this assay with an IC50 of from about 500 nM to about 10 nM or less when tested in this assay.

p38 MAP kinase = target: T1, p38 MAP kinase (Mus musculus, UniProt P47811); assay: p38 MAP Kinase Assay (phosphorylation of GST-ATF-2, ELISA detection); type: biochemical, murine; conditions: His-p38 MAP kinase, GST-ATF-2 substrate, ATP 120 μM, 1 h at 37° C.; read-out: IC50 for p38 MAP kinase inhibition
T1 construct: a fusion protein comprising full length murine p38 MAP kinase and a His tag; host or cells: E. coli
Experimental: The substrate (GST-ATF-2; a fusion protein comprising amino acids 1-109 of ATF-2 and the GST protein obtained by expression in E. coli) is coated onto the webs of microtiter plates (50 μl/well; 1 μg/ml in PBS/0.02% Na azide) overnight at 4° C. The following day, the microtiter plates are washed four times with PBS/0.5% Tween 20/0.02% Na azide and are blocked with PBS/2% BSA/0.02% Na Azide for 1 h at 37° C. Plates are washed again 4 times with PBS/0.5% Tween 20/0.02% Na azide. The kinase cascade reaction is then started by adding the following reactants in 10 μl aliquots to a final reaction volume of 50 μl.
1. Agents of the Invention titrated from 10 to 0.001 μM in 10-fold dilutions or solvent (DMSO) or H2O.
2. Kinase buffer (5×); pH 7.4; 125 mM Hepes (Stock at 1M; Gibco #15630-056), 125 mM β-glycerophosphate (Sigma #G-6251):125 mM MgCl2 (Merck #5833); 0.5 mM Sodium orthovanadate (Sigma #5-6508), 10 mM DTT (Boehringer Mannheim #708992). The (5×) kinase buffer must be prepared fresh the day of the assay from 5× stock solutions kept at RT. DTT is kept at −20° C. and is added as the last reagent.
3. His-p38 MAP kinase (10 ng/well; Novartis—a fusion protein comprising full length murine p38 MAP kinase and a His tag, obtained by expression in E. coli)
4. cold ATP (final concentration 120 μM; Sigma #A-9187)
After 1 h at 37° C. the kinase reaction is terminated by washing the plates four times as previously described. Phosphorylated GST-ATF-2 is then detected by adding:
1. the PhosphoPlus ATF-2 (Thr71) Antibody (50 μl/well; 1/1000 final dilution in PBS/2% BSA/0.02% Na Azide; New England Biolabs #9221L) for 90 min at RT.
2. Biotin labelled goat-anti-rabbit IgG (50 μl/well; 1/3000 final dilution in PBS/2% BSA/0.02% Na Azide; Sigma #B-9642) for 90 min at RT.
3. Streptavidin-alkaline phosphatase (50 μl/well; 1/5000 dilution in PBS/2% BSA/0.02% Na Azide; Jackson Immunoresearch #016-050-84) for 30 min at RT.
4. Substrate (100 μl/well; Sigma 104 Phosphatase substrate tablets, 5 mg/tablet; #104-105; 1 mg/ml in substrate buffer, Diethanolamine (97 ml/l; Merck #803116)+MgCl2.6H2O (100 mg/l; Merck #5833)+Na Azide (0.2 g/l)+HCl 1M to pH 9.8) 30 min at RT.
After step 1, 2 and 3 the microtiter plates are washed four times with PBS/0.5% Tween 20/0.02% Na azide. After step 4, the plates are read in a Bio-Rad microplate reader in a dual wavelength mode (measurement filter […] and reference filter […]). The background value (without ATP) is subtracted and IC50 values are calculated using the Origin computer program (4 parameter logistic function).

T1 sequence (P47811 whole entry, the tested form may be a part): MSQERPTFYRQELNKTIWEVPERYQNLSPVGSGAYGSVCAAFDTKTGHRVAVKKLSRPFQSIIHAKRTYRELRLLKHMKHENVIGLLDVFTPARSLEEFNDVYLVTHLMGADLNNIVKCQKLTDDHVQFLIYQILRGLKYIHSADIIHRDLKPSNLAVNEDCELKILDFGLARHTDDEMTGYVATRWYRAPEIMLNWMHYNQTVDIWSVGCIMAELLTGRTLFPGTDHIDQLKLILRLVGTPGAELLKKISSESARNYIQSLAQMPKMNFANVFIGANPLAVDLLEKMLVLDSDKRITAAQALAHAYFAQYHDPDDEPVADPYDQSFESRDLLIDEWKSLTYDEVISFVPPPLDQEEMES

Structure (SMILES)	IC50 [1] [nM]	IC50 (p38 MAP kinase) [nM]	melting point [°C]
CN1CCC(O)(c2cn(-c3ccnc(NC4CCCC4)n3)c(-c3cccc(C(F)(F)F)c3)n2)CC1 (as salt: fumarate) [Example 33, 2-(3-Trifluoromethylphenyl)-4-(1-methyl-4-hydroxypiperidin-4-yl)-1-(2-cyclopentylamino-4-pyrimidyl)imidazole]	–	–	189 to 193
CN1CCC(O)(c2cn(-c3ccnc(NC4CCCCC4)n3)c(-c3ccc(F)cc3)n2)CC1 [Example 31]	1 to 10	–	–
CN1CCC(O)(c2cn(-c3ccnc(NC4CC4)n3)c(-c3cccc(C(F)(F)F)c3)n2)CC1 [Example 32, 2-(3-Trifluoromethylphenyl)-4-(1-methyl-4-hydroxypiperidin-4-yl)-1-(2-cyclopropylamino-4-pyrimidyl)imidazole]	1 to 10	–	–
CN1CCC(O)(c2cn(-c3ccnc(NC4CCCC4)n3)c(-c3cccc(C(F)(F)F)c3)n2)CC1 [Example 33, 2-(3-Trifluoromethylphenyl)-4-(1-methyl-4-hydroxypiperidin-4-yl)-1-(2-cyclopentylamino-4-pyrimidyl)imidazole]	1 to 10	–	–
C[C@H](Nc1nccc(-n2cc(-c3ccncc3)nc2-c2ccc(F)cc2)n1)c1ccccc1 [Example 35, 2-(4-Fluorophenyl)-1-(2-[1-(S)-phenyl-ethyl]amino-4-pyrimidyl) 4-(4-pyridyl)imidazole]	1 to 10	1 to 10	–
C[C@H](Nc1nccc(-n2cc(-c3cccc(Cl)c3)nc2-c2ccc(F)cc2)n1)c1ccccc1 [Example 49, 2-(4-Fluorophenyl)-1-(2-[1-(S)-phenyl-ethyl]amino-4-pyrimidyl)-4-(3-chlorophenyl)imidazole]	1 to 10	1 to 10	–
C[C@H](Nc1nccc(-n2cc(/C=N/NC(=N)N)nc2-c2ccc(F)cc2)n1)c1ccccc1 [Example 50, 2-(4-Fluorophenyl)-1-(2-[1-(S)-phenyl-ethyl]amino-4-pyrimidyl)-4-methyleneaminoguanidinyl-imidazole]	1 to 10	–	–
CCOC(=O)N1CCC(c2cn(-c3ccnc(N[C@@H](C)c4ccccc4)n3)c(-c3ccc(F)cc3)n2)CC1 [Example 51, 2-(4-Fluorophenyl)-1-(2-(1-(S)-phenylethyl)amino-4-pyrimidyl)-4-(4-ethoxycarbonyl)piperidine-1-yl Imidazole]	1 to 10	1 to 10	–
C[C@H](Nc1nccc(-n2cc(C3CCNCC3)nc2-c2ccc(F)cc2)n1)c1ccccc1 [Example 52]	1 to 10	1 to 10	–
C[C@H](Nc1nccc(-n2cc(C3CCN(C=O)CC3)nc2-c2ccc(F)cc2)n1)c1ccccc1 [Example 53, 2-(4-Fluorophenyl)-1-(2-(1-(S)-phenylethyl)amino-4-pyrimidyl)-4-(4-formyl)-piperidine-1-yl Imidazole]	1 to 10	–	–
C[C@H](Nc1nccc(-n2cc(C3CCN(CC(C)(C)O)CC3)nc2-c2ccc(F)cc2)n1)c1ccccc1 [Example 54]	1 to 10	–	–
C[C@H](Nc1nccc(-n2cc([C@]3(O)C[C@H]4CC[C@@H](C3)N4C(=O)OC(C)(C)C)nc2-c2ccc(F)cc2)n1)c1ccccc1 [Example 59, 2-(4-Fluorophenyl)-1-(2-(1-(S)-phenylethyl)amino-4-pyrimidyl)-4-(3a-hydroxy-N-tert.butyloxycarbonylnortropan-3b-yl)imidazole]	1 to 10	–	–
C[C@H](Nc1nccc(-n2cc([C@]3(O)C[C@H]4CC[C@@H](C3)N4)nc2-c2ccc(F)cc2)n1)c1ccccc1 [Example 60, 2-(4-Fluorophenyl)-1-(2-(1-(S)-phenylethyl)amino-4-pyrimidyl)-4-(3a-hydroxy-nortropan-3b-yl)imidazole]	1 to 10	–	–

Continued, in another order:

IC50 [1] [nM]	IC50 (p38 MAP kinase) [nM]	Structure (SMILES)	melting point [°C]
1 to 10	–	C[C@H](Nc1nccc(-c2oc(C3CCN(C)CC3)nc2-c2ccc(F)cc2)n1)c1ccccc1 [Example 4]	–
1 to 10	–	C[C@H](Nc1nccc(-c2oc(C3CCNCC3)nc2-c2ccc(F)cc2)n1)c1ccccc1 [Example 8, 4-(4-Fluorophenyl)-5-(2-[1-(S)-phenylethyl]amino-4-pyrimidyl)-2-(4-NH-piperidine-1-yl)oxazole]	–
1 to 10	1 to 10	Fc1ccc(-c2nc(C3CCNCC3)oc2-c2ccnc(NCC3CC3)n2)cc1 [Example 9, 4-(4-Fluorophenyl)-5-(2-cyclopropylmethylamino-4-pyrimidyl)-2-(4-NH-piperidin-1-yl)oxazole]	–
–	1 to 10	C[C@H](Nc1cc(-c2oc(C3(O)CCN(C)CC3)nc2-c2ccc(F)cc2)ccn1)c1ccccc1 [Example 14]	–
–	1 to 10	CN1CCC(O)(c2nc(-c3ccc(F)cc3)c(-c3ccnc(NCC4CC4)c3)o2)CC1 [Example 15]	–
1 to 10	–	Fc1ccc(-c2nc(C3CCNCC3)oc2-c2ccnc(NCC3CC3)c2)cc1 [Example 19, 4-(4-Fluorophenyl)-2-(4-NH-piperidine-1-yl)-5-(2-cyclopropylmethylamino-4-pyridyl)oxazole]	–
1 to 10	–	CC(C)(O)CN1CCC(c2nc(-c3ccc(F)cc3)c(-c3ccnc(NCC4CC4)c3)o2)CC1 [Example 20, 4-(4-Fluorophenyl)-2-(4-N-(2-hydroxy-2-methyl)propylpiperidine-1-yl)-5-(2-cyclopropylmethylamino-4-pyridyl)oxazole]	–
1 to 10	–	CC(C)(O)CN1CCC(c2nc(-c3ccc(F)cc3)c(-c3ccnc(NC4CCCCC4)c3)o2)CC1 [Example 23, 4-(4-Fluorophenyl)-2-(4-N-(2-hydroxy-2-methyl)propylpiperidine-1-yl)-5-(2-cyclohexylamino-4-pyridyl)oxazole]	–
1 to 10	–	CC(C)(O)CN1CCC(c2cn(-c3ccnc(NC4CCCC4)n3)c(-c3ccc(F)cc3)n2)CC1 [Example 55]	–
1 to 10	–	C[C@H](Nc1nccc(-n2cc(C3CCN(C)CC3)nc2-c2ccc(F)cc2)n1)c1ccccc1 [Example 56, 2-(4-Fluorophenyl)-1-(2-(1-(S)-phenylethyl)amino-4-pyrimidyl)-4-(4-methyl)-piperidine-1-yl Imidazole]	–
